Measurements: ChEMBL document CHEMBL1147995, “In-vitro investigation of oxazol and urea analogues of morphinan at opioid receptors” (Bioorg Med Chem, 2007)
pEC50, pIC50, pKi: −log10 of the molar value.

Legend:
[1] = biological target: T1, Mu-type opioid receptor (Homo sapiens, UniProt P35372); assay: Displacement of [3H]DAMGO from human mu opioid receptor expressed in CHO membrane; format: cell membranes
[2] = biological target: T2, Kappa-type opioid receptor (Homo sapiens, UniProt P41145); assay: Displacement of [3H]U69,593 from human kappa opioid receptor expressed in CHO membrane; format: cell membranes
[3] = biological target: T3, Delta-type opioid receptor (Homo sapiens, UniProt P41143); assay: Displacement of [3H]naltrindole from human delta opioid receptor expressed in CHO membrane at 10 uM; format: cell membranes
[4] = biological target: T3, Delta-type opioid receptor; assay: Displacement of [3H]naltrindole from human delta opioid receptor expressed in CHO membrane; format: cell membranes
[5] = Displacement of [3H]naltrindole from human delta opioid receptor expressed in CHO membrane
[6] = biological target: T1, Mu-type opioid receptor; assay: Agonist activity at human mu opioid receptor expressed in CHO cells assessed as stimulation of [35S]GTP-gamma-S binding relative to basal level after 60 mins; format: functional, cell-based
[7] = biological target: T1, Mu-type opioid receptor; assay: Agonist activity at human mu opioid receptor expressed in CHO cells assessed as stimulation of [35S]GTP-gamma-S binding after 60 mins; format: functional, cell-based
[8] = biological target: T2, Kappa-type opioid receptor; assay: Agonist activity at human kappa opioid receptor expressed in CHO cells assessed as stimulation of [35S]GTP-gamma-S binding after 60 mins; format: functional, cell-based
[9] = biological target: T1, Mu-type opioid receptor; assay: Antagonist activity at human mu opioid receptor expressed in CHO cells assessed as inhibition of DAMGO-induced [35S]GTPgammaS binding after 60 mins; format: functional, cell-based
[10] = biological target: T2, Kappa-type opioid receptor; assay: Agonist activity at human kappa opioid receptor expressed in CHO cells assessed as stimulation of [35S]GTP-gamma-S binding relative to basal level after 60 mins; format: functional, cell-based

T3 sequence (P41143 whole entry): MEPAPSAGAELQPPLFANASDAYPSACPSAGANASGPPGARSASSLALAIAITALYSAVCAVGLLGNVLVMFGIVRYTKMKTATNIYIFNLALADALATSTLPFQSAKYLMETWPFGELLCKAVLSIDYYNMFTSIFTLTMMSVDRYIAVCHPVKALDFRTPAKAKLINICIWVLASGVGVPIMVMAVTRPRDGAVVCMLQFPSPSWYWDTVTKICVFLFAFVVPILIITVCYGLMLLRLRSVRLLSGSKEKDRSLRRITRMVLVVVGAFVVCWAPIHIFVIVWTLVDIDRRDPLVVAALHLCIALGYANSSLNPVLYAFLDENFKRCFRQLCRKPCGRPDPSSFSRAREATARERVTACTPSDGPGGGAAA
T2 sequence (P41145 whole entry): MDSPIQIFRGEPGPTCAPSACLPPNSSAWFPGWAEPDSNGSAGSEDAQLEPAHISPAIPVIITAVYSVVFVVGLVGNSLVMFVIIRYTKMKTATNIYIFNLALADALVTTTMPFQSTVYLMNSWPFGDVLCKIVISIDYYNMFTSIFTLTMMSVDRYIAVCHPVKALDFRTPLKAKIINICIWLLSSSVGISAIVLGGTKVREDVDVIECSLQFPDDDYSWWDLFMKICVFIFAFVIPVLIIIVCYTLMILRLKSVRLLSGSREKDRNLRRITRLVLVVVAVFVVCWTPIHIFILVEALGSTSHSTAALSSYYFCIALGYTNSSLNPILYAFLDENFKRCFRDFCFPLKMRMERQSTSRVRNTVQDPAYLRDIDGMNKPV
T1 sequence (P35372 whole entry): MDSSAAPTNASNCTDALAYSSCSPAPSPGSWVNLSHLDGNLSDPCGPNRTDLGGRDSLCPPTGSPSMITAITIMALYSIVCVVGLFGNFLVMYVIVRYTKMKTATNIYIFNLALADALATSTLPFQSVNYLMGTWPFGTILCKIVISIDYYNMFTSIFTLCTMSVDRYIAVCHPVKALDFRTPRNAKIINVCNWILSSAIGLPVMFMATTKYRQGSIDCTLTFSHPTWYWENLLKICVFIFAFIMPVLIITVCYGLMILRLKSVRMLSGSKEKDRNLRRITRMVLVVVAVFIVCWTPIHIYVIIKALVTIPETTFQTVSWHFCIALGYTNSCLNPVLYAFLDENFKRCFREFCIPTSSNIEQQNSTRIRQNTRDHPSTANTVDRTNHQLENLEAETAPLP

Question: With O=c1[nH]c2cc3c(cc2o1)[C@@]12CCCC[C@H]1[C@@H](C3)N(CC1CC1)CC2 as the molecule, how does the pKi [1] read?
Answer: 6.80

Question: And the pKi [2]?
Answer: 7.33

Question: What about the inhibition [3] of the same molecule?
Answer: 44%

Question: With CNC(=O)Nc1ccc2c(c1)[C@@]13CCCC[C@H]1[C@@H](C2)N(CC1CCC1)CC3 as the molecule, how does the pKi [1] read?
Answer: 7.66

Question: And the pKi [2]?
Answer: 7.70

Question: What about the pKi [4] of the same molecule?
Answer: 6.57

Question: What does the source list for Nc1ccc2c(c1)[C@@]13CCCC[C@H]1[C@@H](C2)N(CC1CC1)CC3?
Answer: pKi [1]: 8.89; pKi [2]: 9.74; pKi [5]: 6.82

Question: With Nc1nc2cc3c(cc2o1)[C@@]12CCCC[C@H]1[C@@H](C3)N(CC1CCC1)CC2 as the molecule, how does the pKi [1] read?
Answer: 7.40

Question: What about the pKi [2] of the same molecule?
Answer: 8.18

Question: And the inhibition [3]?
Answer: 46%

Question: With NC(=O)Nc1ccc2c(c1)[C@@]13CCCC[C@H]1[C@@H](C2)N(CC1CCC1)CC3 as the molecule, how does the pKi [1] read?
Answer: 8.49

Question: What about the Emax [6] of the same molecule?
Answer: 33%

Question: What about the pEC50 [7] of the same molecule?
Answer: 7.20

Question: What about the pEC50 [8] of the same molecule?
Answer: 7.06

Question: What about the pIC50 [9] of the same molecule?
Answer: 5.82

Question: And the Imax [9]?
Answer: 35%

Question: What about the pKi [2] of the same molecule?
Answer: 8.05

Question: And the Emax [10]?
Answer: 64%

Question: What about the pKi [4] of the same molecule?
Answer: 6.80

Question: With Nc1nc2cc3c(cc2o1)[C@@]12CCCC[C@H]1[C@@H](C3)N(CC1CC1)CC2 as the molecule, how does the pKi [1] read?
Answer: 6.82

Question: What about the pKi [2] of the same molecule?
Answer: 7.28

Question: What about the inhibition [3] of the same molecule?
Answer: 18%

Question: With Nc1ccc2c(c1)[C@@]13CCCC[C@H]1[C@@H](C2)N(CC1CCC1)CC3 as the molecule, how does the pKi [5] read?
Answer: 6.74

Question: With O=c1[nH]c2cc3c(cc2o1)[C@@]12CCCC[C@H]1[C@@H](C3)N(CC1CCC1)CC2 as the molecule, how does the pKi [1] read?
Answer: 8.24

Question: And the pKi [2]?
Answer: 8.72

Question: What about the pKi [4] of the same molecule?
Answer: 6.44

Question: What does the source list for CNC(=O)Nc1ccc2c(c1)[C@@]13CCCC[C@H]1[C@@H](C2)N(CC1CC1)CC3?
Answer: pKi [1]: 7.92; pEC50 [8]: 8.08; pKi [2]: 8.64; Emax [10]: 67%; pKi [4]: 7.30

Question: With NC(=O)Nc1ccc2c(c1)[C@@]13CCCC[C@H]1[C@@H](C2)N(CC1CC1)CC3 as the molecule, how does the pKi [1] read?
Answer: 8.85

Question: And the Emax [6]?
Answer: 21%

Question: What about the pEC50 [7] of the same molecule?
Answer: 7.51

Question: And the pEC50 [8]?
Answer: 7.48

Question: What about the pIC50 [9] of the same molecule?
Answer: 6.42

Question: And the Imax [9]?
Answer: 52%

Question: And the pKi [2]?
Answer: 9.21

Question: What about the Emax [10] of the same molecule?
Answer: 84%

Question: What about the pKi [4] of the same molecule?
Answer: 7.64
